Measurements as given in patent USRE48097E1, “Cephem compounds, their production and use” (priority 2015, dated 2020).
≈ marks a conversion by molar mass, not a printed value. Where two headings read alike, the source gives them in different places.

Key:
[1] = system: S. pneumoniae 2389; experiment: MIC against S. pneumoniae 2389; assay type: cell-based; conditions: Table 2, S. pneumoniae 2389, Pen R
From the text: (§1) Without limitation, the present cephem compounds alone, or in combination with one or more β-lactamase inhibitors, may provide improved antibacterial efficacy, particularly in antibiotic-resistant bacterial strains. It is believed that the present compounds may be structurally different from known compounds and, as a result, may be more basic in nature. It is an advantage that the present compounds may extend the spectrum of effective bacterial compounds, particularly against previously-resistant bacteria (e.g. ESKAPE organisms), and/or gram negative bacteria, without significant side effects. In a preferred embodiment, the present cephem compound may comprise reference compound ceftazidime, which may be used alone, or in combination with one or more β-lactamase inhibitors, such as NXL-104. As shown, the foregoing composition was tested for minimum inhibitory concentration (MIC, μg/mL) against bacteria listed in Tables 2-3.

[2] = system: E. cloacae 2704; experiment: MIC against E. cloacae 2704; assay type: cell-based; conditions: Table 2, E. cloacae 2704, P99
From the text: as §1

[3] = system: E. cloacae 552; experiment: MIC against E. cloacae 552; assay type: cell-based; conditions: Table 2, E. cloacae 552, Caz S, IMP S
From the text: as §1

[4] = system: E. cloacae 2706; experiment: MIC against E. cloacae 2706; assay type: cell-based; conditions: Table 3, E. cloacae 2706, VIM-1, KPC-3
Experimental: (§2) As shown, the foregoing composition was tested for minimum inhibitory concentration (MIC, μg/mL) against bacteria listed in Tables 2-3.

[5] = system: K. pneumoniae 4108; experiment: MIC against K. pneumoniae 4108; assay type: cell-based; conditions: K. pneumoniae 4108, KPC-3, TEM-166, SHV-12, SHV-141
Experimental: as §2

[6] = system: K. pneumoniae 4105; experiment: MIC against K. pneumoniae 4105; assay type: cell-based; conditions: K. pneumoniae 4105, KPC-3, TEM-1, SHV-11
Experimental: as §2

[7] = system: K. pneumoniae 4088; experiment: MIC against K. pneumoniae 4088; assay type: cell-based; conditions: Table 3, K. pneumoniae 4088, KPC-3
Experimental: as §2

[8] = system: S. aureus 3132; experiment: MIC against S. aureus 3132; assay type: cell-based; conditions: Table 2, S. aureus 3132, MSSA
From the text: as §1

[9] = system: K. pneumoniae 2712; experiment: MIC against K. pneumoniae 2712; assay type: cell-based; conditions: Table 3, K. pneumoniae 2712, KPC-3, VIM-1
Experimental: as §2

[10] = system: E. coli 2666; experiment: MIC against E. coli 2666; assay type: cell-based; conditions: Table 3, E. coli 2666, KPC-2
Experimental: as §2

[11] = system: P. aeruginosa 2573; experiment: MIC against P. aeruginosa 2573; assay type: cell-based; conditions: Table 2, P. aeruginosa 2573, OXA-10 (Class D)
From the text: as §1

[12] = system: E. coli 2671; experiment: MIC against E. coli 2671; assay type: cell-based; conditions: Table 2, E. coli 2671, VIM-19
From the text: as §1

[13] = system: E. cloacae596; experiment: MIC against E. cloacae596; assay type: cell-based, E. cloacae; conditions: Table 2, E. cloacae596, Caz R, IMP S
From the text: as §1

[14] = system: S. aureus 3147; experiment: MIC against S. aureus 3147; assay type: cell-based; conditions: Table 2, S. aureus 3147, MSSA
From the text: as §1

[15] = system: E. cloacae 551; experiment: MIC against E. cloacae 551; assay type: cell-based; conditions: Table 2, E. cloacae 551, Caz R, IMP S
From the text: as §1

[16] = system: E. cloacae 2710; experiment: MIC against E. cloacae 2710; assay type: cell-based; conditions: Table 3, E. cloacae 2710, KPC-3, VIM-1
Experimental: as §2

[17] = system: E. cloacae 566; experiment: MIC against E. cloacae 566; assay type: cell-based; conditions: Table 2, E. cloacae 566, Caz R, IMP S
From the text: as §1

[18] = system: S. pneumoniae 2407; experiment: MIC against S. pneumoniae 2407; assay type: cell-based; conditions: Table 2, S. pneumoniae 2407, Pen S
From the text: as §1

[19] = system: C. freundii 15; experiment: MIC against C. freundii 15; assay type: cell-based; conditions: Table 2, C. freundii 15, Caz R, IMP S
From the text: as §1

[20] = system: M. morganii 2409; experiment: MIC against M. morganii 2409; assay type: cell-based; conditions: Table 2, M. morganii 2409, High level cephase, β-Lactamase producing
From the text: as §1

[21] = system: E. coli 4098; experiment: MIC against E. coli 4098; assay type: cell-based; conditions: Table 2, E. coli 4098, CTX-M-15, TEM-1
From the text: as §1

[22] = system: S. pneumoniae ATCC 6301; experiment: MIC against S. pneumoniae ATCC 6301; assay type: cell-based; conditions: Table 2, S. pneumoniae ATCC 6301, Pen S
From the text: as §1

[23] = system: S. aureus 3136; experiment: MIC against S. aureus 3136; assay type: cell-based; conditions: Table 2, S. aureus 3136, MSSA
From the text: as §1

[24] = Streptococcus pneumoniae, alone, read-out: MIC
[25] = Enterobacter cloacae, alone, read-out: MIC
[26] = Klebsiella pneumoniae, 4108, Table 2, alone, read-out: MIC
[27] = Klebsiella pneumoniae, 4108, Table 3, alone, read-out: MIC
[28] = Table 2, in combination with NXL-104
[29] = Table 3, in combination with NXL-104
[30] = Klebsiella pneumoniae, 4105, Table 2, alone, read-out: MIC
[31] = Klebsiella pneumoniae, 4105, Table 3, alone, read-out: MIC
[32] = Klebsiella pneumoniae, alone, read-out: MIC
[33] = Staphylococcus aureus, alone, read-out: MIC
[34] = Escherichia coli, alone, read-out: MIC
[35] = Pseudomonas aeruginosa, alone, read-out: MIC
[36] = Citrobacter freundii, alone, read-out: MIC
[37] = Morganella morganii, alone, read-out: MIC
[38] = Streptococcus pneumoniae, ATCC6301, alone, read-out: MIC

## CC(C)(O/N=C(\C(=O)N[C@@H]1C(=O)N2C(C(=O)[O-])=C(C[n+]3ccc4n3CCN4Cc3ccc(C(=N)N)cc3)CS[C@H]12)c1csc(N)n1)C(=O)O [Example 2, (6R,7R)-7-{[(2Z)-2-(2-Amino-1,3-thiazol-4-yl)-2-{[(2-carboxypropan-2-yl)oxy]imino}acetyl]amino}-3-{[1-(4-carbamimidoylbenzyl)-2,3-dihydro-1H-imidazo[1,2-b]pyrazol-5-ium-5-yl]methyl}-8-oxo-5-thia-1-azabicyclo[4.2.0]oct-2-ene-2-carboxylate]
[1]; [24]
  MIC: 8 µg/mL
[1]; in combination with NXL-104
  MIC: 8.00 µg/mL
[2]; [25]
  MIC: 4 µg/mL
[2]; in combination with NXL-104
  MIC: 1.00 µg/mL
[3]; [25]
  MIC: 0.12 µg/mL
[3]; in combination with NXL-104
  MIC: 0.12 µg/mL
[4]; [25]
  MIC: > 32 µg/mL
[4]; in combination with NXL-104
  MIC: 32 µg/mL
[5]; [26]
  MIC: 4 µg/mL (≈ 5.64 µM)
[5]; [27]
  MIC: > 32 µg/mL
[5]; [28]
  MIC: 1.00 µg/mL
[5]; [29]
  MIC: 2 µg/mL
[6]; [30]
  MIC: 32 µg/mL (≈ 45.1 µM)
[6]; [31]
  MIC: > 32 µg/mL
[6]; [28]
  MIC: 2.00 µg/mL
[6]; [29]
  MIC: 2 µg/mL
[7]; [32]
  MIC: > 32 µg/mL
[7]; in combination with NXL-104
  MIC: 4 µg/mL
[8]; [33]
  MIC: 2 µg/mL
[8]; in combination with NXL-104
  MIC: 2.00 µg/mL
[9]; [32]
  MIC: > 32 µg/mL
[9]; in combination with NXL-104
  MIC: 4 µg/mL
[10]; [34]
  MIC: 32 µg/mL (≈ 45.1 µM)
[10]; in combination with NXL-104
  MIC: 2 µg/mL
[11]; [35]
  MIC: 2 µg/mL
[11]; in combination with NXL-104
  MIC: 4.00 µg/mL
[12]; [34]
  MIC: 4 µg/mL
[12]; in combination with NXL-104
  MIC: 4.00 µg/mL
[13]; [25]
  MIC: 0.5 µg/mL
[13]; in combination with NXL-104
  MIC: 0.25 µg/mL
[14]; [33]
  MIC: 2 µg/mL
[14]; in combination with NXL-104
  MIC: 2.00 µg/mL
[15]; [25]
  MIC: 8 µg/mL
[15]; in combination with NXL-104
  MIC: 1.00 µg/mL
[16]; [25]
  MIC: > 32 µg/mL
[16]; in combination with NXL-104
  MIC: >32 µg/mL
[17]; [25]
  MIC: 0.5 µg/mL
[17]; in combination with NXL-104
  MIC: 0.25 µg/mL
[18]; [24]
  MIC: 0.12 µg/mL
[18]; in combination with NXL-104
  MIC: 0.12 µg/mL
[19]; [36]
  MIC: 4 µg/mL
[19]; in combination with NXL-104
  MIC: 0.50 µg/mL
[20]; [37]
  MIC: 8 µg/mL
[20]; in combination with NXL-104
  MIC: 1.00 µg/mL
[21]; [34]
  MIC: 1 µg/mL
[21]; in combination with NXL-104
  MIC: 0.25 µg/mL
[22]; [38]
  MIC: ≤ 0.06 µg/mL
[22]; in combination with NXL-104
  MIC: ≤0.06 µg/mL
[23]; [33]
  MIC: 2 µg/mL
[23]; in combination with NXL-104
  MIC: 2.00 µg/mL

## CC(C)(O/N=C(\C(=O)N[C@@H]1C(=O)N2C(C(=O)[O-])=C(C[n+]3ccc4c(ccn4Cc4cc(C(=N)N)cs4)c3)CS[C@H]12)c1csc(N)n1)C(=O)O [Example 5, (6R,7R)-7-{[(2Z)-2-(2-Amino-1,3-thiazol-4-yl)-2-{[(2-carboxypropan-2-yl)oxy]imino}acetyl]amino}-3-({1-[(4-carbamimidoylthiophen-2-yl)methyl]-1H-pyrrolo[3,2-c]pyridin-5-ium-5-yl}methyl)-8-oxo-5-thia-1-azabicyclo[4.2.0]oct-2-ene-2-carboxylate]
[1]; [24]
  MIC: 2 µg/mL
[1]; in combination with NXL-104
  MIC: 1.00 µg/mL
[2]; [25]
  MIC: 16 µg/mL
[2]; in combination with NXL-104
  MIC: 2.00 µg/mL
[3]; [25]
  MIC: 0.12 µg/mL
[3]; in combination with NXL-104
  MIC: ≤0.06 µg/mL
[4]; [25]
  MIC: > 32 µg/mL
[4]; in combination with NXL-104
  MIC: 32 µg/mL
[5]; [26]
  MIC: 8 µg/mL (≈ 11.1 µM)
[5]; [27]
  MIC: 32 µg/mL (≈ 44.2 µM)
[5]; [28]
  MIC: 0.50 µg/mL
[5]; [29]
  MIC: 1 µg/mL
[6]; [30]
  MIC: 32 µg/mL (≈ 44.2 µM)
[6]; [31]
  MIC: 32 µg/mL (≈ 44.2 µM)
[6]; [28]
  MIC: 1.00 µg/mL
[6]; [29]
  MIC: 1 µg/mL
[7]; [32]
  MIC: 32 µg/mL (≈ 44.2 µM)
[7]; in combination with NXL-104
  MIC: 2 µg/mL
[8]; [33]
  MIC: 2 µg/mL
[8]; in combination with NXL-104
  MIC: 2.00 µg/mL
[9]; [32]
  MIC: > 32 µg/mL
[9]; in combination with NXL-104
  MIC: 4 µg/mL
[10]; [34]
  MIC: 16 µg/mL (≈ 22.1 µM)
[10]; in combination with NXL-104
  MIC: 1 µg/mL
[11]; [35]
  MIC: 4 µg/mL
[11]; in combination with NXL-104
  MIC: 4.00 µg/mL
[12]; [34]
  MIC: 16 µg/mL
[12]; in combination with NXL-104
  MIC: 16.00 µg/mL
[13]; [25]
  MIC: 8 µg/mL
[13]; in combination with NXL-104
  MIC: 0.25 µg/mL
[14]; [33]
  MIC: 2 µg/mL
[14]; in combination with NXL-104
  MIC: 2.00 µg/mL
[15]; [25]
  MIC: 32 µg/mL
[15]; in combination with NXL-104
  MIC: 1.00 µg/mL
[16]; [25]
  MIC: > 32 µg/mL
[16]; in combination with NXL-104
  MIC: >32 µg/mL
[17]; [25]
  MIC: 2 µg/mL
[17]; in combination with NXL-104
  MIC: 0.50 µg/mL
[18]; [24]
  MIC: ≤ 0.06 µg/mL
[18]; in combination with NXL-104
  MIC: ≤0.06 µg/mL
[19]; [36]
  MIC: 16 µg/mL
[19]; in combination with NXL-104
  MIC: 0.50 µg/mL
[20]; [37]
  MIC: 16 µg/mL
[20]; in combination with NXL-104
  MIC: 0.50 µg/mL
[21]; [34]
  MIC: > 32 µg/mL
[21]; in combination with NXL-104
  MIC: 0.12 µg/mL
[22]; [38]
  MIC: ≤ 0.06 µg/mL
[22]; in combination with NXL-104
  MIC: ≤0.06 µg/mL
[23]; [33]
  MIC: 2 µg/mL
[23]; in combination with NXL-104
  MIC: 2.00 µg/mL
